From patent US9872495B2, “Peptoid oligomers, pharmaceutical compositions and methods of using the same” (priority 2009, dated 2018) come the findings set out here.

What all share (format): cell-based
For series [1], the system named is Bacillus subtilis ATCC 6633. On the procedure:
(§1) Antimicrobial activity was tested against the gram-negative strain Escherichia coli ATCC 25922, and […] strains Staphylococcus aureus ATCC 25923, and Bacillus subtilis ATCC 6633, according to the guidelines given in the document […]-A7 of the CLSI (Clinical and Laboratory Standards Institute; Clinical and Laboratory Standards Institute. Methods for Dilution Antimicrobial Susceptibility Tests for Bacteria That Grow Aerobically-Seventh Edition: Approved Standard CLSI document […]-A7. CLSI, Wayne, USA, 2006). This reference is incorporated herein in its entirety. Hemolytic activity was tested against fresh human erythrocytes.

The subject of series [2] is Escherichia coli ATCC 25922. On the procedure:
as §1

Series [3] deals with Staphylococcus aureus ATCC 25923. On the procedure:
as §1

In a further series the test system is fresh human erythrocytes. Kind of series: Hemolytic activity. On the procedure: Typically, toxicity is evaluated by hemolytic concentration50 (HC50), which measures the concentration of antimicrobial agents at which 50% of the erythrocytes in the culture are lysed. Significant hemolysis, as evaluated by HC50, was detectable only for peptide gramicidin S (40 μg/mL). […] In order to test hemolytic activity of peptoid oligomers further, more stringent parameters were used. Instead of HC50, hemolytic concentration10 (HC10) was used to evaluate hemolytic activity of peptoids used in this study. HC10 represents the concentration of antimicrobial agents where 10% of erythrocytes are lysed. HC10 values were detectable for only four peptoid oligomers. […] Antimicrobial activity was tested against the gram-negative strain Escherichia coli ATCC 25922, and […] strains Staphylococcus aureus ATCC 25923, and Bacillus subtilis ATCC 6633, according to the guidelines given in the document […]-A7 of the CLSI (Clinical and Laboratory Standards Institute; Clinical and Laboratory Standards Institute. Methods for Dilution Antimicrobial Susceptibility Tests for Bacteria That Grow Aerobically-Seventh Edition: Approved Standard CLSI document […]-A7. CLSI, Wayne, USA, 2006). This reference is incorporated herein in its entirety. Hemolytic activity was tested against fresh human erythrocytes.

In brackets after ≈: the same amount, converted by molar mass. Where two headings read alike, the source gives them in different places. Square brackets hold non-standard residues; d marks the D form. Peptide text beside a SMILES is read from it. Gly(N-(CH2)6NH2) = NCCCCCCNCC(=O)O; NhArg = N=C(N)NCCCCNCC(=O)O; Nphe = O=C(O)CNCc1ccccc1; Orn = NCCC[C@H](N)C(=O)O

For the compound `CC(=O)N(CCCCNC(=N)N)CC(=O)N(CC(=O)N(CCCCNC(=N)N)CC(=O)N(CC(=O)N(CCCCNC(=N)N)CC(=O)N(CC(=O)N(CCCCNC(=N)N)CC(=O)N(CC(=O)N(CCCCNC(=N)N)CC(=O)N(CC(N)=O)CC(c1ccccc1)c1ccccc1)CC(c1ccccc1)c1ccccc1)CC(c1ccccc1)c1ccccc1)CC(c1ccccc1)c1ccccc1)CC(c1ccccc1)c1ccccc1` [Compound 15, Ac(NgbNdp)5], in series [1] (ATCC 6633), the “MIC B. sub” value came out at 62.5 µg/mL (≈ 29.8 µM). Also, in series [2] (ATCC 25922), the “MIC E. coli” value was 31.3 µg/mL (≈ 14.9 µM). Also, the “MIC S. aureus” value in series [3] (ATCC 25923) was 62.5 µg/mL (≈ 29.8 µM). Also, in the series with fresh human erythrocytes (red cells of human), the “HC10 (concentration where 10% hemolysis is observed)” value was >250 µg/mL and the “HC50 (concentration where 50% hemolysis is observed)” value is >250 µg/mL.
Turning to `CC(=O)N(CC(=O)N(CCCCNC(=N)N)CC(=O)N(CC(=O)N(CCCCNC(=N)N)CC(=O)N(CC(=O)N(CC(N)=O)CC(c1ccccc1)c1ccccc1)CC(c1ccccc1)c1ccccc1)CC(c1ccccc1)c1ccccc1)CC(c1ccccc1)c1ccccc1` [Compound 16, Ac(NdpNgb)2Ndp2], in series [1] (B. subtilis ATCC 6633), the “MIC B. sub” value was >500 µg/mL. Further, the “MIC E. coli” value in series [2] (E. coli ATCC 25922) is >500 µg/mL. Also, the “MIC S. aureus” value in series [3] (S. aureus ATCC 25923) turned out to be 62.5 µg/mL (≈ 46.3 µM). For the same compound, in the series with fresh human erythrocytes (fresh human erythrocytes), the “HC10 (concentration where 10% hemolysis is observed)” value was 250 µg/mL and the “HC50 (concentration where 50% hemolysis is observed)” value is >250 µg/mL.
Regarding `CC(C)C[C@@H]1NC(=O)[C@H](CCCN)NC(=O)[C@H](C(C)C)NC(=O)[C@@H]2CCCN2C(=O)[C@@H](Cc2ccccc2)NC(=O)[C@H](CC(C)C)NC(=O)[C@H](CCCN)NC(=O)[C@H](C(C)C)NC(=O)[C@@H]2CCCN2C(=O)[C@@H](Cc2ccccc2)NC1=O` [Compound 17, Gramicidin S, reference compound] (cyclo(V[Orn]L[dF]PV[Orn]L[dF]P)), the “MIC B. sub” value in series [1] (ATCC 6633) amounted to 2 µg/mL (≈ 1.75 µM). For the same compound, the “MIC E. coli” value in series [2] (ATCC 25922) came to 15.6 µg/mL (≈ 13.7 µM). Besides, the “MIC S. aureus” value in series [3] (ATCC 25923) worked out at 15.6 µg/mL (≈ 13.7 µM). For the same compound, the “HC50 (concentration where 50% hemolysis is observed)” value in the series on fresh human erythrocytes stood at 40 µg/mL. In addition, the “HC10 (concentration where 10% hemolysis is observed)” value in the series with fresh human erythrocytes (red cells of human) was >15.6 µg/mL.
`N=C(N)NCCCCN1CC(=O)N(Cc2ccccc2)CC(=O)N(CCCCNC(=N)N)CC(=O)N(Cc2ccccc2)CC(=O)N(CCCCNC(=N)N)CC(=O)N(Cc2ccccc2)CC1=O` [Compound 18, C(NgbNpm)3] (cyclo([Nphe][NhArg][Nphe][NhArg][Nphe][NhArg])): in series [1] (ATCC 6633), the “MIC B. sub” value stood at 125 µg/mL (≈ 131 µM). The “MIC E. coli” value in series [2] (ATCC 25922) came to 250 µg/mL (≈ 263 µM). Moreover, the “MIC S. aureus” value in series [3] (ATCC 25923) is 250 µg/mL (≈ 263 µM). In addition, in the series on fresh human erythrocytes (red cells of human), the “HC10 (concentration where 10% hemolysis is observed)” value is >250 µg/mL and the “HC50 (concentration where 50% hemolysis is observed)” value was >250 µg/mL.
In the case of `NCCCCCCN1CC(=O)N(Cc2ccccc2)CC(=O)N(CCCCCCN)CC(=O)N(Cc2ccccc2)CC(=O)N(CCCCCCN)CC(=O)N(Cc2ccccc2)CC1=O` [Compound 19, C(NahNpm)3] (cyclo([Nphe][Gly(N-(CH2)6NH2)][Nphe][Gly(N-(CH2)6NH2)][Nphe][Gly(N-(CH2)6NH2)])), the “MIC B. sub” value in series [1] (ATCC 6633) was found to be 500 µg/mL (≈ 549 µM). For the same compound, the “MIC E. coli” value in series [2] (ATCC 25922) amounted to 500 µg/mL (≈ 549 µM). Also, in series [3] (ATCC 25923), the “MIC S. aureus” value is >500 µg/mL. In the series on fresh human erythrocytes (red cells of human), the “HC10 (concentration where 10% hemolysis is observed)” value was >250 µg/mL and the “HC50 (concentration where 50% hemolysis is observed)” value is >250 µg/mL.
In the case of `NCCCN1CC(=O)N(CC(c2ccccc2)c2ccccc2)CC(=O)N(CCCN)CC(=O)N(CC(c2ccccc2)c2ccccc2)CC(=O)N(CCCN)CC(=O)N(CC(c2ccccc2)c2ccccc2)CC1=O` [Compound 20, C(NapNdp)3], the “MIC B. sub” value in series [1] (ATCC 6633) is 1 µg/mL (≈ 0.948 µM). Besides, in series [2] (ATCC 25922), the “MIC E. coli” value amounted to 15.6 µg/mL (≈ 14.8 µM). The “MIC S. aureus” value in series [3] (ATCC 25923) is 7.8 µg/mL (≈ 7.4 µM). For the same compound, in the series on fresh human erythrocytes (red cells of human), the “HC10 (concentration where 10% hemolysis is observed)” value is >31.3 µg/mL and the “HC50 (concentration where 50% hemolysis is observed)” value is >250 µg/mL.
The matching figures for `NCCCN1CC(=O)N(Cc2ccc3ccccc3c2)CC(=O)N(CCCN)CC(=O)N(Cc2ccc3ccccc3c2)CC(=O)N(CCCN)CC(=O)N(Cc2ccc3ccccc3c2)CC1=O` [Compound 21, C(NapNnm)3]: 0.5 µg/mL (≈ 0.535 µM), 31.3 µg/mL (≈ 33.5 µM), 31.3 µg/mL (≈ 33.5 µM), >250 µg/mL and >250 µg/mL.
